System: Mild to Moderate Osteoarthritis of the Knee
Test: Phase 2 study: use of rescue medication (paracetamol)
Type: in vivo, human
Conditions: for Percentage of patients using rescue medication: only for knee pain
Description: Subjects taking nonsteroidal anti-inflammatory drugs (NSAID) or other analgesics may enroll in the trial, but will discontinue any analgesic therapy for the duration of the study, starting at least 4 days (or 5 half lives, whichever is longer) prior to administration of the first dose of study medication (i.e., for an analgesic washout period before Day 1). Subjects will be allowed to take rescue medication (up to six 325 mg tablets [total of 1950 mg] of acetaminophen per day; provided by the Sponsor) for residual knee or other body pain starting 4 days (or 5 half lives, whichever is longer) prior to administration of the first dose of study medication except during the 24 hours prior to Baseline (Day 1), Week 2, Week 4, Week 8, Week 12/end of study (EOS), and Follow up assessments.
Subjects will record the following information in a Daily Diary starting at Screening: the amount of knee pain in the target knee while walking during the preceding 24 hours (using a 100 mm visual analog scale [VAS]), the times and number of sprays for each administration of study medication, the times when the subject washes his/her knees and/or takes a shower, the number of tablets of rescue medication taken that day and the times taken, the reason for taking the rescue medication (e.g., knee pain, headache, low back pain), any other concomitant medications taken that day, and any AEs occurring that day.
3.9.3. Exploratory Efficacy Endpoints: • 1. Subject's global assessment of disease status of the target knee at 2, 4, 8, and 12 weeks of treatment; • 2. Investigator's global assessment of disease status of the target knee at 2, 4, 8, and 12 weeks of treatment; • 3. Subject's global assessment of response to therapy of the target knee at 2, 4, 8, and 12 weeks of treatment; • 4. Investigator's global assessment of response to therapy of the target knee at 2, 4, 8, and 12 weeks of treatment; • 5. Change from Baseline over time in VAS pain scores for the target knee from Daily Diary data; • 6. Amount of rescue medication (acetaminophen) consumed per day for target knee pain.
Zeidler thought that paracetamol as rescue medication in nearly all OA trials may be a missing link to explain at least partially the large placebo response in OA trials. (Henning Zeidler, Paracetamol and the Placebo Effect in Osteoarthritis Trials: A Missing Link? Pain Research and Treatment, Volume 2011, 1-6.) From published data, the difference of the used amount of paracetamol is very small between the placebo and active drug cohorts. […] (T. J. Schnitzer, A. Kivitz, H. Frayssinet, and B. Duquesroix, “Efficacy and safety of naproxcinod in the treatment of patients with osteoarthritis of the knee: a 13-week prospective, randomized, multicenter study.” Osteoarthritis and Cartilage, vol. 18, no. 5, pp. 629-639, 2010.) In this trial, NSAIDs or any analgesic therapy was discontinued for the duration of the study, starting at least 14 days (or 5 half lives, whichever is longer) prior to administration of the first dose of study medication (ie, for an analgesic washout period before Day 1). Subjects were allowed to take rescue medication (up to six 325 mg tablets [total of 1950 mg] of acetaminophen per day; provided by the Sponsor) for residual knee or other body pain starting at least 4 days (or 5 half lives, whichever is longer) prior to administration of the first dose of study medication except during the 24 hours prior to Baseline (Day 1), Week 2, Week 4, Week 8, Week 12/end of study (EOS), and Follow-up assessments.

[1] = 8.75 mg/knee (BID), Day −2 to day −5 (baseline)
[2] = 17.5 mg/knee (BID), Day −2 to day −5 (baseline)
[3] = 35 mg/knee (BID), Day −2 to day −5 (baseline)
[4] = for all pain and other conditions, 8.75 mg/knee (BID), Week 2
[5] = for all pain and other conditions, 8.75 mg/knee (BID), Week 4
[6] = for all pain and other conditions, 8.75 mg/knee (BID), Week 8
[7] = for all pain and other conditions, 8.75 mg/knee (BID), Week 12
[8] = for all pain and other conditions, 17.5 mg/knee (BID), Week 2
[9] = for all pain and other conditions, 17.5 mg/knee (BID), Week 4
[10] = for all pain and other conditions, 17.5 mg/knee (BID), Week 8
[11] = for all pain and other conditions, 17.5 mg/knee (BID), Week 12
[12] = for all pain and other conditions, 35 mg/knee (BID), Week 2
[13] = for all pain and other conditions, 35 mg/knee (BID), Week 4
[14] = for all pain and other conditions, 35 mg/knee (BID), Week 8
[15] = for all pain and other conditions, 35 mg/knee (BID), Week 12

CCN(CC)CCOC(=O)C(C)c1ccc(CC(C)C)cc1 (stereo not drawn) [2-(diethylamino)ethyl 2-(4-isobutylphenyl)propionate]
patients using rescue medication at the end of the study (8.75 mg/knee): 17.3% | Rescue medication (paracetamol) only for knee pain, daily amount [1]: 349 mg/day/patient | Rescue medication (paracetamol) only for knee pain, daily amount (8.75 mg/knee (BID), Week 2): 216 mg/day/patient | Rescue medication (paracetamol), % of decrease from baseline (8.75 mg/knee (BID), Week 2): 38.1% | Rescue medication (paracetamol) only for knee pain, daily amount (8.75 mg/knee (BID), Week 4): 167 mg/day/patient | Rescue medication (paracetamol), % of decrease from baseline (8.75 mg/knee (BID), Week 4): 52.1% | Rescue medication (paracetamol) only for knee pain, daily amount (8.75 mg/knee (BID), Week 8): 166 mg/day/patient | Rescue medication (paracetamol), % of decrease from baseline (8.75 mg/knee (BID), Week 8): 52.4% | Rescue medication (paracetamol) only for knee pain, daily amount (8.75 mg/knee (BID), Week 12): 159 mg/day/patient | Rescue medication (paracetamol), % of decrease from baseline (8.75 mg/knee (BID), Week 12): 54.4% | patients using rescue medication at the end of the study (17.5 mg/knee): 6.5% | Rescue medication (paracetamol) only for knee pain, daily amount [2]: 243 mg/day/patient | Rescue medication (paracetamol) only for knee pain, daily amount (17.5 mg/knee (BID), Week 2): 86 mg/day/patient | Rescue medication (paracetamol), % of decrease from baseline (17.5 mg/knee (BID), Week 2): 64.6% | Rescue medication (paracetamol) only for knee pain, daily amount (17.5 mg/knee (BID), Week 4): 67 mg/day/patient | Rescue medication (paracetamol), % of decrease from baseline (17.5 mg/knee (BID), Week 4): 72.4% | Rescue medication (paracetamol) only for knee pain, daily amount (17.5 mg/knee (BID), Week 8): 54 mg/day/patient | Rescue medication (paracetamol), % of decrease from baseline (17.5 mg/knee (BID), Week 8): 77.8% | Rescue medication (paracetamol) only for knee pain, daily amount (17.5 mg/knee (BID), Week 12): 56 mg/day/patient | Rescue medication (paracetamol), % of decrease from baseline (17.5 mg/knee (BID), Week 12): 77.0% | use of rescue medication for all pain and other conditions (17.5 mg/knee and 35 mg/knee groups, week 12): less than 100 mg/day/patient | patients using rescue medication at the end of the study (35 mg/knee): 5.8% | Rescue medication (paracetamol) only for knee pain, daily amount [3]: 291 mg/day/patient | Rescue medication (paracetamol) only for knee pain, daily amount (35 mg/knee (BID), Week 2): 98 mg/day/patient | Rescue medication (paracetamol), % of decrease from baseline (35 mg/knee (BID), Week 2): 66.3% | Rescue medication (paracetamol) only for knee pain, daily amount (35 mg/knee (BID), Week 4): 88 mg/day/patient | Rescue medication (paracetamol), % of decrease from baseline (35 mg/knee (BID), Week 4): 69.8% | Rescue medication (paracetamol) only for knee pain, daily amount (35 mg/knee (BID), Week 8): 54 mg/day/patient | Rescue medication (paracetamol), % of decrease from baseline (35 mg/knee (BID), Week 8): 81.4% | Rescue medication (paracetamol) only for knee pain, daily amount (35 mg/knee (BID), Week 12): 44 mg/day/patient | Rescue medication (paracetamol), % of decrease from baseline (35 mg/knee (BID), Week 12): 84.9% | Daily amount of rescue medication (paracetamol) (for all pain and other conditions, 8.75 mg/knee (BID), Day −2 to day −5 (baseline)): 364 mg/day/patient | Daily amount of rescue medication (paracetamol) [4]: 263 mg/day/patient | Rescue medication (paracetamol), % of decrease from baseline [4]: 27.7% | Daily amount of rescue medication (paracetamol) [5]: 208 mg/day/patient | Rescue medication (paracetamol), % of decrease from baseline [5]: 42.9% | Daily amount of rescue medication (paracetamol) [6]: 210 mg/day/patient | Rescue medication (paracetamol), % of decrease from baseline [6]: 42.3% | Daily amount of rescue medication (paracetamol) [7]: 209 mg/day/patient | Rescue medication (paracetamol), % of decrease from baseline [7]: 42.6% | Daily amount of rescue medication (paracetamol) (for all pain and other conditions, 17.5 mg/knee (BID), Day −2 to day −5 (baseline)): 278 mg/day/patient | Daily amount of rescue medication (paracetamol) [8]: 136 mg/day/patient | Rescue medication (paracetamol), % of decrease from baseline [8]: 51.1% | Daily amount of rescue medication (paracetamol) [9]: 115 mg/day/patient | Rescue medication (paracetamol), % of decrease from baseline [9]: 58.6% | Daily amount of rescue medication (paracetamol) [10]: 87 mg/day/patient | Rescue medication (paracetamol), % of decrease from baseline [10]: 68.7% | Daily amount of rescue medication (paracetamol) [11]: 69 mg/day/patient | Rescue medication (paracetamol), % of decrease from baseline [11]: 75.2% | Daily amount of rescue medication (paracetamol) (for all pain and other conditions, 35 mg/knee (BID), Day −2 to day −5 (baseline)): 310 mg/day/patient | Daily amount of rescue medication (paracetamol) [12]: 171 mg/day/patient | Rescue medication (paracetamol), % of decrease from baseline [12]: 44.8% | Daily amount of rescue medication (paracetamol) [13]: 158 mg/day/patient | Rescue medication (paracetamol), % of decrease from baseline [13]: 49.0% | Daily amount of rescue medication (paracetamol) [14]: 111 mg/day/patient | Rescue medication (paracetamol), % of decrease from baseline [14]: 64.2% | Daily amount of rescue medication (paracetamol) [15]: 94 mg/day/patient | Rescue medication (paracetamol), % of decrease from baseline [15]: 69.7% | Daily amount of rescue medication (paracetamol) (for other conditions excluding knee pain, 8.75 mg/knee (BID), Day −2 to day −5 (baseline)): 15 mg/day/patient | Daily amount of rescue medication (paracetamol) (for other conditions excluding knee pain, 8.75 mg/knee (BID), Week 2): 47 mg/day/patient | Daily amount of rescue medication (paracetamol) (for other conditions excluding knee pain, 8.75 mg/knee (BID), Week 4): 41 mg/day/patient | Daily amount of rescue medication (paracetamol) (for other conditions excluding knee pain, 8.75 mg/knee (BID), Week 8): 44 mg/day/patient | Daily amount of rescue medication (paracetamol) (for other conditions excluding knee pain, 8.75 mg/knee (BID), Week 12): 50 mg/day/patient | Daily amount of rescue medication (paracetamol) (for other conditions excluding knee pain, 17.5 mg/knee (BID), Day −2 to day −5 (baseline)): 35 mg/day/patient | Daily amount of rescue medication (paracetamol) (for other conditions excluding knee pain, 17.5 mg/knee (BID), Week 2): 50 mg/day/patient | Daily amount of rescue medication (paracetamol) (for other conditions excluding knee pain, 17.5 mg/knee (BID), Week 4): 48 mg/day/patient | Daily amount of rescue medication (paracetamol) (for other conditions excluding knee pain, 17.5 mg/knee (BID), Week 8): 33 mg/day/patient | Daily amount of rescue medication (paracetamol) (for other conditions excluding knee pain, 17.5 mg/knee (BID), Week 12): 13 mg/day/patient | Daily amount of rescue medication (paracetamol) (for other conditions excluding knee pain, 35 mg/knee (BID), Day −2 to day −5 (baseline)): 19 mg/day/patient | Daily amount of rescue medication (paracetamol) (for other conditions excluding knee pain, 35 mg/knee (BID), Week 2): 73 mg/day/patient | Daily amount of rescue medication (paracetamol) (for other conditions excluding knee pain, 35 mg/knee (BID), Week 4): 70 mg/day/patient | Daily amount of rescue medication (paracetamol) (for other conditions excluding knee pain, 35 mg/knee (BID), Week 8): 57 mg/day/patient | Daily amount of rescue medication (paracetamol) (for other conditions excluding knee pain, 35 mg/knee (BID), Week 12): 50 mg/day/patient | maximum decrease of rescue medication for all pain, pre-treatment to week 12 (in vivo): up to 75% | Percentage of patients using rescue medication [1]: 35.3% | Percentage of patients using rescue medication (8.75 mg/knee (BID), Week 2): 23.6% | Percentage of patients using rescue medication (8.75 mg/knee (BID), Week 4): 18.4% | Percentage of patients using rescue medication (8.75 mg/knee (BID), Week 8): 17.1% | Percentage of patients using rescue medication (8.75 mg/knee (BID), Week 12): 16.3% | Percentage of patients using rescue medication [2]: 24.0% | Percentage of patients using rescue medication (17.5 mg/knee (BID), Week 2): 11.3% | Percentage of patients using rescue medication (17.5 mg/knee (BID), Week 4): 8.4% | Percentage of patients using rescue medication (17.5 mg/knee (BID), Week 8): 7.2% | Percentage of patients using rescue medication (17.5 mg/knee (BID), Week 12): 6.5% | Percentage of patients using rescue medication [3]: 34.8% | Percentage of patients using rescue medication (35 mg/knee (BID), Week 2): 12.4% | Percentage of patients using rescue medication (35 mg/knee (BID), Week 4): 11.0% | Percentage of patients using rescue medication (35 mg/knee (BID), Week 8): 7.6% | Percentage of patients using rescue medication (35 mg/knee (BID), Week 12): 5.8% | maximum decrease in the use of rescue medication, paracetamol (pre-treatment to week 12): 84.9%
